Columns and labels:
[1] = tested on: Eggs and juvenile root-knot nematodes; assay: Direct effect on eggs and juvenile root-knot nematodes in aqueous solution; parameters: species or system Meloidogyne spp.
Description: Direct Effect of Acibenzolar-S-methyl onto Nematodes Eggs and juvenile root-knot nematodes are placed into aqueous solutions of acibenzolar-S-methyl (1, 10, 20 and 50 ppm active ingredient). No effect is observed on egg hatching and viability on those eggs and juvenils on penetration of those nematodes into tomato roots and on the number of eggs produced by those nematodes on tomatoes.

[2] = tested on: root-knot nematodes (Meloidogyne javanica and M. arenaria); assay: Egg production by root-knot nematodes on inoculated grapevines after foliar spray; assay type: in vivo; conditions: 50 mg/l foliar spray, eggs in 20 ml sub-sample
Protocol: (§1) Root-knot nematodes (Meloidogyne spp.) are cultured on tobacco or tomato. Root-knot nematode eggs are collected from these plants and hatched for inoculation of the grapevines using the standard method. Nematode eggs are collected from the inoculated grapevines by agitating clean root pieces in 0,8% NaOCl for four minutes. The roots are washed on a bank of three sieves and eggs collected on a 25 μm sieve. The eggs are washed into 100 ml of water and the number of eggs in a 20 ml sub-sample is estimated using a Doncaster dish. Galling is assessed in grapevine roots before egg counts. The roots are assessed with the naked eye for percentage of galls on the roots.
(§2) Uniformly developed rooted hardwood grapevine cuttings, variety Cabernet Sauvignon (Vitis vinifera), are planted into 20 cm diameter pots (one plant per pot) containing a pasteurised potting mix consisting of 50:50 coarse sand and peat. (Prior to pasteurisation, 300 g of fertiliser is added to each 50 liter bin of potting mix. The fertiliser consisted of 1000 g single superphosphate, 200 g ammonium nitrate, 150 g potassium sulphate, 100 g ferrous sulphate, 3000 g dolomite lime and 1500 g lime). The grapevines are grown in a glasshouse at 19-24° C. The plants are watered on alternate days, and fertilised weekly with a water soluble fertiliser. Grapevines are inoculated with 1000 juveniles of a mixed population of root-knot nematodes (Meloidogyne javanica and M. arenaria) 4 weeks after planting. The nematodes are pipetted into two 2cm deep holes at the base of the plant. Grapevine roots are harvested for nematode egg counts 10 weeks after inoculation (described below).
(§3) Acibenzolar-S-methyl (which is benzo(1,2,3)thiadiazole-7-carbothioic acid S-methyl ester, a plant activator from NOVARTIS) is formulated as a 50% water dispersible granule, diluted to 50 mg per liter of spray mixture and sprayed onto the leaves of the grapevines (using a hand-held sprayer) until the point of run-off.
a) cumulative applications: In the first series, acibenzolar-S-methyl is applied to the plants once, twice or three times. The single treatment of acibenzolar-S-methyl is applied one week before inoculation; the double treatment is applied one week before inoculation and at the same time as inoculation; for the third treatment acibenzolar-S-methyl is applied one week before inoculation, at inoculation and one week after inoculation.
(§4) b) single applications: A second series of experiments tested only single applications of acibenzolar-S-methyl either five days before inoculation, at the same time as inoculation or five days after inoculation. Both series of experiments have been completed twice. Water is used as the control treatment in each series.
(§5) The tables indicate the number of eggs produced by Meloidogyne spp in a 20 ml sub-sample, and the percentage galling on roots, resp.

nematodes = assay: Protection of other crops against attack by nematodes; assay type: in vivo; conditions: applied on tomatoes, soybean, carrots, potatoes and beet
Description: Good effects for protecting plants against attack by nematodes are also found by applying acibenzolar-S-methyl on tomatoes, soybean, carrots, potatoes and beet.

grapevines = assay: Plant tolerance (phytotoxicity, appearance, fresh weights) of treated grapevines; assay type: in vivo, Vitis vinifera (Cabernet Sauvignon); conditions: 50 mg/l foliar spray
Protocol: as §2, §3

[3] = tested on: root-knot nematodes (Meloidogyne javanica and M. arenaria); assay: Percentage galling on grapevine roots after foliar spray; assay type: in vivo; conditions: 50 mg/l foliar spray
Protocol: as §1, §2, §3, §4, §5

[4] = after exposure to aqueous solutions, 1, 10, 20 and 50 ppm active ingredient

CSC(=O)c1cccc2nnsc12 [acibenzolar-S-methyl, benzo(1,2,3)thiadiazole-7-carbothioic acid S-methyl ester]
effect on number of eggs produced by the nematodes on tomatoes [1, 4]: No effect
effect on penetration of nematodes into tomato roots [1, 4]: No effect
effect on egg hatching and viability of eggs and juveniles ([1]; aqueous solutions, 1, 10, 20 and 50 ppm active ingredient): No effect
Number of eggs ([2]; one application (one week before inoculation), first experiment, 10 weeks after inoculation, control 4320): 1520 (8)
Number of eggs ([2]; one application (one week before inoculation), second experiment, control 240): 150 (7)
Number of eggs ([2]; three applications (one week before, at and one week after inoculation), first experiment, control 4320): 1400 (6)
Number of eggs ([2]; three applications (one week before, at and one week after inoculation), second experiment, control 240): 20 (7)
Number of eggs ([2]; two applications (one week before and at inoculation), first experiment, control 4320): 740 (7)
Number of eggs ([2]; two applications (one week before and at inoculation), second experiment, control 240): 100 (7)
protecting plants against attack by nematodes (nematodes): Good effects
appearance of grapevines at harvest (grapevines; versus water control): no significant differences
phytotoxicity (grapevines; grapevines): No phytotoxicity
root fresh weights or fresh weight of the foliage and stems (grapevines; grapevines): no difference
Mean percentage galling ([3]; single application at inoculation, first experiment, control 10): 2.3 (8) %
Mean percentage galling ([3]; single application at inoculation, second experiment, control 5): 3 (6) %
Mean percentage galling ([3]; single application five days after inoculation, first experiment, control 10): 1.1 (8) %
Mean percentage galling ([3]; single application five days after inoculation, second experiment, control 5): 4 (8) %
Mean percentage galling ([3]; single application five days before inoculation, first experiment, control 10): 0.6 (8) %
Mean percentage galling ([3]; single application five days before inoculation, second experiment, control 5): 2 (7) %
